Like-named read-outs stand apart in the source and are kept apart here.
What was measured:
[1] = system: HCV genotype 1b replicon; assay: HCV replicon assay (Zluc luciferase reporter); type: cell-based; settings: Huh-7-derived Zluc cells, genotype 1b replicon, luciferase, 72 hours, read-out: HCV Replicon EC50
Procedure: Huh-7-derived cell line (Zluc) that harbors an HCV genotype 1b replicon and a luciferase reporter gene was grown in Dulbecco's Modified Eagle Medium (DMEM) supplemented with 10% fetal bovine serum, 2 mM GlutaMAX, 1% MEM nonessential amino acids, 100 IU/mL penicillin, 100 μg/mL streptomycin, and 0.5 mg/mL Geneticin® (G418). For dose response testing the cells were seeded in 96-well plates at 7.5×10^3 cells per well in a volume of 50 μL, and incubated at 37° C./5% CO2. Drug solutions were made up freshly in Huh-7 media as 2× stocks. Ten additional 5-fold dilutions were prepared from these stocks in DMEM without G418. At least three hours after Zluc cells were seeded, drug treatment was initiated by adding 50 μL of drug dilutions to the plates in duplicate. Final concentrations of drug ranged from 100 μM to 0.0000512 μM. Cells were then incubated at 37° C./5% CO2. Alternatively, compounds were tested at two concentrations (1 μM and 10 μM). […] After 72 hours of incubation, the inhibition of HCV replication was measured by quantification of photons emitted after mono-oxygenation of 5′-fluoroluciferin to oxyfluoroluciferin by firefly luciferase. For this, media was removed from the plates via gentle tapping. Fifty microliters of ONE-glo luciferase assay reagent was added to each well. The plates were shaken gently for 3 min at room temperature and luminescence was measured on a Victor^3 V 1420 multilabel counter (Perkin Elmer) with a 1 second read time using a 700 nm cut-off filter. The EC50 values were calculated from dose response curves from the resulting best-fit equations determined by Microsoft Excel and XLfit 4.1 software. When screening at two fixed concentrations, the results were expressed as % inhibition at 1 μM and 10 μM.

[2] = in vitro; settings: human

Row | SMILES | EC50 ([1]; Hepatitis C virus) [µM] | CC50 [2] [µM] | EC50 [1] [µM]
1 | Nc1nc2c(ncn2[C@@H]2O[C@H](CO)[C@@H](CF)[C@H]2O)c(=O)[nH]1 [Compound 226] | > 10 | > 50 | –
2 | CC(C)(C)C(=O)SCCOP(=O)(OCCSC(=O)C(C)(C)C)OC[C@H]1O[C@@H](n2cnc3c(=O)[nH]c(N)nc32)[C@H](O)[C@@H]1CO [Compound 101] | > 10 | > 50 | –
3 | O=c1ccn([C@@H]2O[C@@H]3COP(=O)(OCc4ccccc4)OC[C@H]3[C@H]2O)c(=O)[nH]1 (mixture of isomers) [Compound 113 (Mixture of diastereomers)] | > 10 | > 50 | –
4 | Nc1ncnc2c1ncn2[C@@H]1O[C@H](CO)[C@@H](CO)[C@H]1O [Compound 207] | > 10 | > 50 | –
5 | CC(C)OP1(=O)OC[C@H]2[C@@H](O)[C@H](n3ccc(=O)[nH]c3=O)O[C@@H]2CO1 (single isomer, unassigned) [Compound 108 (Diastereomer 1)] | > 10 | > 50 | –
6 | C[C@@H](NP(=O)(OC[C@H]1O[C@@H](n2ccc(=O)[nH]c2=O)[C@H](O)[C@@H]1CO)Oc1ccccc1)C(=O)OCc1ccccc1 (single isomer, unassigned) [Compound 123a Diastereomer 1] | > 10 | > 50 | –
7 | CC(C)OC(=O)CCCOP(=O)(O)OC[C@H]1O[C@@H](n2ccc(=O)[nH]c2=O)[C@H](O)[C@@H]1CO [Compound 115] | > 10 | > 50 | –
8 | O=c1ccn([C@@H]2O[C@H](CO[PH](=O)OCc3ccccc3)[C@@H](CO)[C@H]2O)c(=O)[nH]1 (mixture of isomers) [Compound 114 (Mixture of diastereomers)] | > 10 | > 50 | –
9 | CCOC(=O)[C@H](CC(C)C)NP(=O)(N[C@@H](CC(C)C)C(=O)OCC)OC[C@H]1O[C@@H](n2cnc3c(OCC)nc(N)nc32)[C@H](O)[C@@H]1CF [Compound 129a] | > 10 | > 50 | –
10 | CC(C)OC(=O)CCCOP1(=O)OC[C@H]2[C@@H](O)[C@H](n3ccc(=O)[nH]c3=O)O[C@@H]2CO1 (single isomer, unassigned) [Compound 112 (Diastereomer 1)] | > 10 | > 50 | –
11 | CC(O)[C@H]1[C@@H](O)[C@H](n2ccc(=O)[nH]c2=O)O[C@@H]1CO (single isomer, unassigned) [Compound 211 (Single Isomer)] | > 10 | > 50 | –
12 | Nc1ccn([C@@H]2O[C@H](CO)[C@@H](C(F)F)[C@H]2O)c(=O)n1 [Compound 203] | > 10 | > 50 | –
13 | CC(=O)OC[C@H]1[C@@H](OC(C)=O)[C@H](n2ccc(N)nc2=O)O[C@@H]1CO [Compound 213] | > 10 | > 50 | –
14 | CC(C)(CO)C(=O)SCCOP1(=O)OC[C@H]2[C@@H](O)[C@H](n3ccc(=O)[nH]c3=O)O[C@@H]2CO1 (mixture of isomers) [Compound 109 (Mixture of diastereomers)] | > 10 | > 50 | –
15 | O=c1ccn([C@@H]2O[C@@H]3COP(=O)(OCc4ccccc4)OC[C@H]3[C@H]2O)c(=O)[nH]1 (single isomer, unassigned) [Compound 113 (Diastereomer 1)] | > 10 | > 50 | –
16 | O=c1ccn([C@@H]2O[C@H](CO)[C@@H](C(F)F)[C@H]2O)c(=O)[nH]1 [Compound 201] | > 10 | > 50 | –
17 | CC(C)OC(=O)[C@@H](C)NP1(=O)OC[C@H]2[C@@H](O)[C@H](n3ccc(=O)[nH]c3=O)O[C@@H]2CO1 (single isomer, unassigned) [Compound 110a (Diastereomer 1)] | > 10 | > 50 | –
18 | CC(C)(CO)C(=O)SCCOP1(=O)OC[C@H]2[C@@H](O)[C@H](n3ccc(=O)[nH]c3=O)O[C@@H]2CO1 (single isomer, unassigned) [Compound 109 (Diastereomer 2)] | – | – | > 10
19 | CC(C)OC(=O)CCCOP1(=O)OC[C@H]2[C@@H](O)[C@H](n3ccc(=O)[nH]c3=O)O[C@@H]2CO1 (single isomer, unassigned) [Compound 112 (Diastereomer 2)] | – | – | > 10
